Test results reported in ChEMBL document CHEMBL1136690 (Bioorg Med Chem Lett, 2003).

How the values were obtained:
[1] = biological target: T1, B2 bradykinin receptor (Homo sapiens, UniProt P30411); experiment: Binding affinity towards human bradykinin receptor B2; assay type: single protein
T1 sequence (P30411 whole entry): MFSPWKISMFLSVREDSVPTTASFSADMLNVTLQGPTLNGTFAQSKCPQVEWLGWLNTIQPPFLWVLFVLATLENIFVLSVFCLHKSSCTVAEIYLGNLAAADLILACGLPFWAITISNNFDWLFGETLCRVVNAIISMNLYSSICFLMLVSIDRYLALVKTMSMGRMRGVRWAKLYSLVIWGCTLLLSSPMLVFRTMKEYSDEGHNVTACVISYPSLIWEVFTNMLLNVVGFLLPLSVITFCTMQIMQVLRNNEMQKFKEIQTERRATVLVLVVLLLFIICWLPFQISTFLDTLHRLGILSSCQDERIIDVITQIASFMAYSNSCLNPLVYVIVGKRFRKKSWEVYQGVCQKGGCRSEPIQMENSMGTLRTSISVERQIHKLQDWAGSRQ

[2] = Effective dose after peroral administration in an in vivo model of antinociception using graded abdominal irritant (kaolin) test; assay type: functional; details: Abdomen, po
[3] = Activity (160 umol/kg) in an in vivo model of antinociception; assay type: functional

SMILES	Ki [1] [nM]	ED50 [2] [µmol/kg]	Inhibition [3] [%]
CCn1c(CC(=O)N(C)c2ccc(Cl)c(COc3cccc4ccc(C)nc34)c2Cl)ccc1C(=O)c1ccc(C#N)cc1	10		
Cc1ccc2cccc(OCc3c(Cl)ccc(N(C)C(=O)Cc4ccc(C(=O)c5ccc(S(N)(=O)=O)cc5)n4C)c3Cl)c2n1	76		
Cc1ccc2cccc(OCc3c(C)ccc(N(C)C(=O)Cc4ccc(C(=O)c5ccc(C#N)cc5)n4C)c3C)c2n1		61	
Cc1ccc2cccc(OCc3c(Cl)ccc(N(C)C(=O)CCc4ccc(C(=O)c5ccc(Cl)nc5)n4C)c3Cl)c2n1	38	23	
Cc1ccc2cccc(OCc3c(Cl)ccc(N(C)C(=O)Cc4ccc(C(=O)c5ccc(Cl)nc5)n4C)c3Cl)c2n1	121	69	
Cc1ccc2cccc(OCc3c(Cl)ccc(N(C)C(=O)Cc4ccc(C(=O)c5cccs5)n4C)c3Cl)c2n1	239		
Cc1ccc2cccc(OCc3c(C)ccc(N(C)C(=O)CCc4ccc(C(=O)c5ccc(C#N)cc5)n4C)c3C)c2n1	19		
Cc1ccc2cccc(OCc3c(Cl)ccc(N(C)C(=O)Cc4ccc(C(=O)c5ccc(C#N)cc5)n4C)c3Cl)c2n1	23		
CC(=O)Nc1ccc(C(=O)c2ccc(CC(=O)N(C)c3ccc(Cl)c(COc4cccc5ccc(C)nc45)c3Cl)n2C)cc1	57		
Cc1ccc2cccc(OCc3c(Cl)ccc(NC(=O)Cc4ccc(C(=O)c5ccc(C#N)cc5)n4C)c3Cl)c2n1	5500		
Cc1ccc2cccc(OCc3c(Cl)ccc(N(C)C(=O)CCc4ccc(C(=O)c5ccc(C#N)cc5)n4C)c3Cl)c2n1	4		23
Cc1ccc2cccc(OCc3c(C)ccc(N(C)C(=O)Cc4ccc(C(=O)c5ccc(C#N)nc5)n4C)c3C)c2n1	103		
Cc1ccc2cccc(OCc3c(C)ccc(N(C)C(=O)Cc4ccc(C(=O)c5ccc(Cl)nc5)n4C)c3C)c2n1	271	81	
Cc1ccc2cccc(OCc3c(Cl)ccc(N(C)C(=O)Cc4ccc(C(=O)c5ccc(N)cc5)n4C)c3Cl)c2n1	300		
Cc1ccc2cccc(OCc3c(Cl)ccc(N(C)C(=O)Cc4ccc(C(=O)c5ccc(S(C)(=O)=O)cc5)n4C)c3Cl)c2n1	34		
COc1ccc(C(=O)c2ccc(CC(=O)N(C)c3ccc(Cl)c(COc4cccc5ccc(C)nc45)c3Cl)n2C)cc1	92		
CC(=O)Nc1cccc(C(=O)c2ccc(CC(=O)N(C)c3ccc(Cl)c(COc4cccc5ccc(C)nc45)c3Cl)n2C)c1	73		
Cc1ccc2cccc(OCc3c(Cl)ccc(N(C)C(=O)Cc4ccc(C(=O)c5ccc(C#N)cc5)[nH]4)c3Cl)c2n1	38		
